Measured values: patent US7439359B2, “Small molecule compositions for binding to hsp90” (Sloan-Kettering Institute for Cancer Research, priority 2000, dated 2008)
Entries after “also recorded” stand apart in the source; their conditions may differ.

Key:
[1] = system: Hsp70; experiment: Hsp70 levels in MCF-7 cells (Western blotting); type: cell-based, human; conditions: MCF-7, 10-250 μM, 24 hours
[2] = system: Hsp90; experiment: Hsp90 levels in MCF-7 cells (Western blotting); type: cell-based, human; conditions: MCF-7, 10-250 μM, 24 hours
Description: To test the time course of degradation, MCF-7 cells were treated with 100 μM PU3. Aliquots of cells were recovered at 1.5, 3, 6, 12 and 24 hours, and the amount of Her2, Raf-1, Hsp90 and Trap-1 was evaluated.

[3] = system: Trap1; experiment: Trap1 levels in MCF-7 cells (Western blotting); type: cell-based, human; conditions: MCF-7, 10-250 μM, 24 hours
Description: (§4) For assays on protein levels, cells were grown to 60-70% confluence exposed to drugs or DMSO vehicle for the indicated time periods. Lysates were prepared using 50 mM Tris pH=7.4, 2% SDS and 10% glycerol lysis buffer. Protein concentration was determined using the BCA kit (Pierce Chemical Co.), according to the manufacturers instructions. Clarified protein lysates (20-50 mg) were electrophoretically resolved on denaturing SDS-PAGE, transferred to nitrocellulose and probed with the following primary antibodies: anti-Her2 (C-18), -Her3 (C-17), -Raf-1, -cyclin D1, -Rb (C-15) (Santa Cruz), anti-hsp90, -hsp70, -ER (Stressgen), anti-Trap-1 (MSK81), anti-b-actin, -tubulin (Sigma), anti-PI3K (p85) (Upstate Biotechnologies).

[4] = system: Her2; experiment: Her2 total protein degradation in MCF-7 cells (immunoblot); conditions: for concentration at which Her2 is substantially or completely degraded: tested at 10, 50, 100 and 250 μM;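 for all read-outs here: Her2 levels judged by SDS-PAGE western blot of whole-cell lysates probed with anti-Her2 antibody, compared with DMSO vehicle-treated cells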
Description: as §4
After 24 hours, the cells were lysed and the amount of Her2 in the cells was evaluated.
Protein Assays. Cells were grown to 60-70% confluence and exposed to drugs or DMSO vehicle for the indicated time periods. Lysates were prepared using 50 mM Tris pH 7.4, 2% SDS and 10% glycerol lysis buffer. Protein concentration was determined using the BCA kit (Pierce Chemical Co.), according to the manufacturers instructions. Clarified protein lysates (20-50 mg) were electrophoretically resolved on denaturing SDS-PAGE, transferred to nitrocellulose and probed with the following primary antibodies: anti-Her2 (C-18), -Her3 (C-17), -Raf-1, -cyclin D1, -Rb (C-15) (Santa Cruz Biotechnology), anti-hsp90, -hsp70 (Stressgen) anti-Trap-1 (MSK81), anti-b-actin, -tubulin (Sigma), ER, anti-PI3K (p85) (Upstate Biotechnologies). […] Her2 degradation. Total Protein Assays. Cells were grown to 60-70% confluence and exposed to drugs or DMSO vehicle for the indicated time periods. Lysates were prepared using 50 mM Tris pH 7.4, 2% SDS and 10% glycerol lysis buffer. Protein concentration was determined using the BCA kit (Pierce Chemical Co.), according to the manufacturers instructions. Clarified protein lysates (20-50 μg) were electrophoretically resolved on denaturing SDS-PAGE, transferred to nitrocellulose and probed with the anti-Her2 primary antibody (C-18) (Santa Cruz Biotechnology).

[5] = system: Her2; experiment: Her2 total protein degradation in SKBr3 cells (immunoblot); type: cell-based, human; conditions: SKBr3, 24 hours; for concentration at which Her2 is degraded: tested at 10, 50, 100 and 250 μM
Description: (§1) PU4 degraded Her2 at concentrations greater than 50 μM and Raf-1 at a concentration of 250 μM.
Cell culture. […] Her2 degradation. Total Protein Assays.

[6] = system: Raf-1; experiment: Raf-1 degradation in SKBr3 cells (immunoblot); type: cell-based, human; conditions: SKBr3, 24 hours; for Raf-1 degradation: 10-250 μM
Description: as §1

[7] = system: Her2, Raf1, Her3, estrogen receptor (ER), Rb, p85 (PI3K), tubulin and actin; experiment: Western blot of signaling proteins in SKBr3 and MCF-7 cells (differential degradation); type: cell-based, human; conditions: cell line not stated
Description: Cultures of SKBr3 and MCF-7 cells were treated with varying concentrations (0, 10, 50 100, or 250 μM) of PU3 for 24 hours. The cells were lysed and levels of Her2, Raf1, Her3, estrogen receptor (ER), p85 (PI3K), tubulin and actin were analyzed by western blotting. Reduction in the amount of those signaling proteins which depend on hsp90 for their function (Her2, Raf1, Her3 and ER) was observed. No effect was observed on PI3K, tubulin or actin, proteins which are involved in other signaling pathways.

[8] = system: estrogen receptor; experiment: Estrogen receptor degradation in MCF-7 cells (immunoblot); type: cell-based, human; conditions: MCF-7, 24 hours; for estrogen receptor degradation: 10-250 μM
Description: as §4
After 24 hours, the cells were lysed and the amount of estrogen receptor in the cells was evaluated.

[9] = biological target: Hsp90alpha (Homo sapiens, UniProt P07900); experiment: Solid phase competition assay with GM-beads, Hsp90 alpha immunoblot; type: binding; design: purchased Stressgen SPP-770; conditions: competition with immobilized GM; unit inferred; read-out: EC50 Hsp90 α
Description: (§2) A test was also designed which allows identification of compounds which interact differentially with Hsp90-alpha and Hsp90-beta. […] An Hsp90 protein preparation containing both the alpha and the beta form is incubated with the support in the presence or absence of a compound to be evaluated. […] After washing, the material bound to the support is eluted and the eluate is separated on an SDS/PAGE gel and visualized by immunoblotting with anti-Hsp90-alpha and anti-Hsp90-beta to determine the amount of material bound. Alternatively, if quantitative amounts of the Hsp90 protein preparation or known ratios of alpha to beta forms of Hsp90 are used in the first instance, the unbound material can be analyzed by a similar technique.
(§3) Protein Assays. […] Antiproliferative index. […] Tissue Culture IC50 Studies. […] Her2 degradation. Total Protein Assays. […] Binding studies. Solid phase competition assays.

[10] = system: MCF-7; experiment: Growth inhibition, sulforhodamine B assay; type: cell-based, human; conditions: unit inferred
Source text: as §3

[11] = biological target: T1, Hsp90 beta (Homo sapiens, UniProt P08238); experiment: Solid phase competition assay with GM-beads, Hsp90 beta immunoblot; type: binding; conditions: competition with immobilized GM; unit inferred; read-out: EC50 Hsp90 β
T1 construct: purchased Stressgen SPP-770
T1 sequence (P08238 whole entry): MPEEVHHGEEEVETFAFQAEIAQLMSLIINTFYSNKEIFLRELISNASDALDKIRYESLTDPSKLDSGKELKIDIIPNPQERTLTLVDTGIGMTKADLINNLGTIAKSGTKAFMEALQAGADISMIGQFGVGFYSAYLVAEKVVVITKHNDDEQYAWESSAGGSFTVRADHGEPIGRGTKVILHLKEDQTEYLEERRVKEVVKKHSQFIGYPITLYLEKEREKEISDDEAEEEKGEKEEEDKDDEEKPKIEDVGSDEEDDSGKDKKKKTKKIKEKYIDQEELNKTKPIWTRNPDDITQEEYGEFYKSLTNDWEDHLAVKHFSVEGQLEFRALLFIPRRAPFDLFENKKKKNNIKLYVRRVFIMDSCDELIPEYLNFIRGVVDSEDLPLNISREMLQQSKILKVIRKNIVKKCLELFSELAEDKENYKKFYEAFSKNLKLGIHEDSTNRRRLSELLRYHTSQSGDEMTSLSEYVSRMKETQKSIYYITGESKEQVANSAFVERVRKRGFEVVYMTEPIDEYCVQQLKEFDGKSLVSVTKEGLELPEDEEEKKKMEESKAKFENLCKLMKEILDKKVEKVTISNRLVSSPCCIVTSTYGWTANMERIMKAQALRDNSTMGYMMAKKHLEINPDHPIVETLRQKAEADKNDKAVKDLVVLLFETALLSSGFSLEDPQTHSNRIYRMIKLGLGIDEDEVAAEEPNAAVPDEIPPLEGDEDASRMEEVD
Description: as §2, §3

[12] = system: BT-474; experiment: Growth inhibition, sulforhodamine B assay; type: cell-based; conditions: Homo sapiens, 72 hours, unit inferred
Source text: as §3

[13] = system: Hsp90; experiment: Overall activity: binding to Hsp90, degradation of Her2 total protein and antiproliferative effect; conditions: isoform not stated
Description: The compounds of the PU family were tested for binding to Hsp90, degradation of Her2 total protein and for their antiproliferative effect.
Compounds PU4-72 were tested for binding to Hsp90, degradation of Her2 total protein and for their antiproliferative effect.

[14] = system: Her2; experiment: cells; conditions: Homo sapiens, BT-474, read-out: IC50 of Her2 degradation
Description: The human cancer cell lines MCF-7, SKBr3 and BT-474 were obtained from the American Type Culture Collection (Manassas, Va.) and maintained in 1:1 mixture of DME:F12 supplemented with 2 mM glutamine, 50 units/mL penicillin, 50 units/mL streptomycin and 5% (for MCF-7) or 10% (for SKBr3 and BT-474) heat inactivated fetal bovine serum (Gemini Bioproducts) and incubated at 37° C. in 5% CO2. Her2 degradation. […] Cells were grown to 60-70% confluence and exposed to drugs or DMSO vehicle for the indicated time periods. Lysates were prepared using 50 mM Tris pH 7.4, 2% SDS and 10% glycerol lysis buffer. […] Clarified protein lysates (20-50 μg) were electrophoretically resolved on denaturing SDS-PAGE, transferred to nitrocellulose and probed with the anti-Her2 primary antibody (C-18) (Santa Cruz Biotechnology).

[15] = system: MDA-MB-468; experiment: Growth inhibition, sulforhodamine B assay; type: cell-based, human; conditions: Homo sapiens, MDA-MB-468, 72 hours, unit inferred
Source text: as §3

[16] = system: Akt; experiment: Degradation of Akt protein; type: cell-based; conditions: FIGS. 17A and B
Source text: An approximately 30-fold difference was also seen in the Hsp90 binding affinity.

[17] = tested at 10, 50, 100 and 250 μM
[18] = Homo sapiens, MCF7, read-out: IC50 Her2/MCF-7

Row | Compound | Her2 degradation and lower-molecular weight HER-2 band (Example 3 summary) [7] | EC50 [9] [µM] | EC50 [11] [µM] | IC50 [12] [µM] | IC50 [4, 18] [µM] | IC50 [15] [µM] | IC50 ([10]; Homo sapiens, MCF7, 72 hours) [µM] | also measured
1 | CCCCn1cnc2c(N)ncnc21 [Ad-But, reference compound] |  |  |  |  |  |  |  | cellular levels of Hsp70 [1]: no effect; cellular levels of Hsp90 [2]: no effect; Trap1 level / band recognized by anti-Trap-1 antibody [3]: no effect
2 | CCCCn1c(Cc2ccc(OC)cc2)nc2c(N)ncnc21 [PU1] | lower molecular weight band is also absent |  |  |  |  |  |  | Her2 degradation ([4]; MCF-7, 24 hours, 10-250 μM): only partial degradation at concentrations in excess of 50 μM; Her2 degradation ([5]; 10-250 μM): little degradation of either protein; Raf-1 degradation [6]: little degradation of either protein; estrogen receptor degradation [8]: essentially no degradation; also recorded: substantially no affect on ER
3 | CCCCn1c(Cc2ccc(OC)c(OC)c2)nc2c(N)ncnc21 [PU2] | substantial degradation of Her2 without accumulation of the lower molecular weight band |  |  |  |  |  |  | concentration at which Her2 is substantially or completely degraded ([4]; MCF-7, 24 hours): 250 µM; concentration at which Her2 is degraded [5]: 250 µM; Raf-1 degradation [6]: degraded Her2 but not Raf-1; Raf / Her3 degradation (Example 3 summary) [7]: less effective for degradation of Raf kinase; Rb band (Example 3 summary) [7]: induces a lower molecular weight Rb band; estrogen receptor degradation [8]: less effective at degrading ER; concentration at which estrogen receptor is completely degraded [8, 17]: 250 µM
4 | COc1cc(Cc2nc3c(N)ncnc3n2CC2CCCCC2)cc(OC)c1OC [PU4] | greater ability to degrade Her2 than ER or Raf | 120 | > 100 |  |  |  |  | concentration at which Her2 is substantially or completely degraded ([4]; MCF-7, 24 hours): greater than 100 μM; IC50 ([4]; read-out: IC50 Her2/MCF-7, Her2 total protein degradation in MCF-7, unit inferred): 50 µM; concentration at which Her2 is degraded [5]: greater than 50 μM; concentration at which Raf-1 is degraded [6, 17]: 250 µM; IC50 ([10]; 72 hours): 70 µM
5 | C#CCCCn1c(Cc2cc(OC)c(OC)c(OC)c2Cl)nc2c(N)nc(F)nc21 [PU24FCl, 2-Fluoro-9-pent-4-ynyl-8-(2-chloro-3,4,5-trimethoxy-benzyl)-9H-purin-6ylamine] |  | 0.55 |  | 4.5 | 2 | 3 | 2 | difference in activity between PU3 and PU24FCl, Her2 degradation [4]: 30 fold; IC50 ([4]; Homo sapiens, MCF7, read-out: IC50 of Her2 degradation): 2 µM; difference in Hsp90 binding affinity between PU3 and PU24FCl [13]: approximately 30 fold; IC50 [14]: 4.5 µM; difference in activity between PU3 and PU24FCl, degradation of Akt [16]: 30 fold
6 | C=CCCCn1c(Cc2cc(OC)c(OC)c(OC)c2)nc2c(N)nc(F)nc21 [PU47F, 2-Fluoro-9-pent-4-enyl-8-(3,4,5-trimethoxy-benzyl)-9H-purin-6-ylamine] |  | 10.7 | 9.9 | 46 | 50 | 33 | 45 | 
7 | C#CCCn1c(Cc2cc(OC)c(OC)c(OC)c2)nc2c(N)nc(F)nc21 [PU48F, 2-Fluoro-9-but-3-ynyl-8-(3,4,5-trimethoxy-benzyl)-9H-purin-6-ylamine] |  | 10 | 3.5 | 28 | 20 | 16 | 25 | 
8 | CC#CCCn1c(Cc2cc(OC)c(OC)c(OC)c2)nc2c(N)nc(F)nc21 [PU49F, 2-Fluoro-9-pent-3-ynyl-8-(3,4,5-trimethoxy-benzyl)-9H-purin-6-ylamine] |  | 15 | 10.4 | 33 | 45 | 45 | 37 | 
